Experimental data as given in patent publication US9487561B2, “Biologically active complex and its preparation” (HAMLET PHARMA AB, priority 2010, dated 2016).

B1: HAMLET (protein, UniProt P00709 20-142, looked up)
Alpha-lactalbumin: KQFTKCELSQLLKDIDGYGGIALPELICTMFHTSGYDTQAIVENNESTEYGLFQISNKLWCKSSQVPQSRNICDISCDKFLDDDITDDIMCAKKILDIKGIDYWLAHKALCTEKLEQWLCEKL
modifications: oleic acid complex

Experiments:
[1] = tested on: eIF2α, ATF6, XBP1, CHOP in A549 tumor cells; test: ER stress response (Western blot, XBP1 splicing PCR, RT-PCR); format: cell-based, human; conditions: for effect of ion channel inhibitor on HAMLET-induced eIF2α phosphorylation (ER stress): lung carcinoma cells, 30 minutes pretreatment, HAMLET 21 and 35 μM, 1 hour; for XBP1 splicing: PCR
Procedure: (§1) RNA was prepared with the RNeasy Mini Kit (QIAGEN, Hilden, Germany) and treated with DNAse I (QIAGEN). cDNA was synthesized using the Superscript III first strand RT-PCR system (Invitrogen). PCR of spliced and un-spliced XBP1 was as described (Yoshida et al., 2001, Cell 107: 881-891). Real-time PCR was performed on a Rotorgene 2000 instrument (Corbett Life Science, Sydney, Australia) using TaqMan Gene Expression Assays (Applied BioSystems) CHOP/DDIT3 (Hs01090850), IL6 (Hs00985639), IL8 (Hs00174103) and TNFα (Hs00174128). GAPDH (Hs99999905_m1) was used for normalization.
(§2) Equal volumes of lysates were separated by SDS-PAGE on 4-12% Bis-Tris gels (Invitrogen) and blotted onto PVDF membranes. For other Western blots, 200,000 cells were allowed to adhere overnight in a 6-well plate. After HAMLET treatment the cells were washed with PBS and lysed in M-PER lysis buffer (Pierce) containing Complete protease inhibitor cocktail and PhosSTOP phosphatase inhibitor cocktail (both from Roche). The detached cells were collected by centrifugation. The lysates were cleared by centrifugation and protein concentrations were measured using the DC Protein Assay (Bio-Rad Laboratories, Hercules, Calif.). Equal amounts of protein were separated by SDS-PAGE on 4-12% Bis-Tris gels (Invitrogen) and blotted onto PVDF membranes (GE Healthcare). Membranes were saturated with BSA (GAPDH) or nonfat dry milk (phospho-p38, p38, phospho-ERK1/2, ERK1/2) and incubated with anti-p38, anti-phospho-p38, anti-ERK1/2, anti-phospho-(Thr202/Tyr204)-p44/42 (all 1:500-1000, Cell Signaling Technology), anti-ATF6 (1:1000, IMG-273, Imgenex), anti-phospho-eIF2α (Ser51), (1:500, Cell Signaling Technology) or anti-GAPDH (1:3000-5000, Novus Biologicals) antibodies followed by horseradish peroxidase-conjugated anti-rabbit (1:1000, DakoCytomation, Glostrup, Denmark) or anti-mouse (1:40000-50000, Novus Biologicals) antibodies for staining. Bound antibodies were detected with ECL Plus Western Blotting Reagent (GE Healthcare, Little Chalfont, UK) and GelDoc equipment (Bio-Rad Laboratories, Hercules, Calif.). If required, membranes were stripped with Restore Western Blot Stripping Buffer (Pierce, Rockford, Ill.), blocked and reprobed with new antibodies. MAP kinase phosphorylation was analyzed on a Human Phospho-MAPK array (Proteome Profiler Array, R&D Systems) as per the manufacturer's instruction. Band and spot intensities were quantified using ImageJ (Abramoff et al., July 2004, Biophotonics International). Cytokine quantification (IL6, IL8, TNFα) was performed on an […] 1000 immunoassay system (Siemens Diagnostics).
Disturbances in ER Ca^2+ regulation can impair protein folding in the ER by inactivation of Ca^2+ dependent chaperones, such as GRP78 and calreticulin. An increase in unfolded proteins may activate a conserved series of signal-transduction events. Spanning the ER membrane, three ER stress sensors PERK, ATF6 and IRE1 are activated by an overload of unfolded proteins. Upon PERK activation, eIF2α is phosphorylated, shutting down protein translation to avoid unfolded protein overload. To examine if HAMLET disturbs the ER and triggers an unfolded protein response, we analyzed the transcription of ER stress-induced genes.

[2] = tested on: IL-6, IL-8, TNFα in healthy, differentiated cells; test: innate immune response (qRT-PCR, cytokine quantification); format: cell-based, human
Procedure: as §1, §2
To examine the molecular basis of the difference in HAMLET susceptibility between carcinoma cells and healthy, differentiated cells, transcriptional profiles were compared.
To further examine if the innate immune response in healthy, differentiated cells requires functional ion channels, the expression of IL-6, IL-8 and TNFα mRNA was quantified in cells pretreated with amiloride and BaCl2, using qRT-PCR.

[3] = tested on: lung carcinoma, kidney carcinoma and lymphoma cells; test: HAMLET-induced change in cell morphology (light microscopy, real-time imaging); format: cell-based; conditions: light microscopy
Procedure: Cells were detached from cell culture flasks with versen (0.2 g EDTA in 200 ml H2O and 800 ml PBS), washed with PBS and resuspended in serum-free RPMI-1640. HAMLET dissolved in PBS was incubated with cells (0.5×10^6/ml for A549, A498 and HeLa cells; 1×10^6/ml for Jurkat) at 37° C. FCS was added after 1 hour. Cell death was quantified by trypan blue exclusion (Chroma Gesellschaft Schmid & Co) or by measuring ATP levels (ATPlite Kit, PerkinElmer, Infinite 200, Tecan). Light images were captured using the HOLOMONITOR™ M2 digital holographic microscope (Phase Holographic Imaging AB, Lund, Sweden).
(§3) For live cell imaging, cells were pre-treated with SB202190 for 30 minutes, nuclei were stained with Hoechst 33342 (Invitrogen) and Alexa-Fluor 568-labeled HAMLET (10% labeled HAMLET, Molecular Probes) was added in serum-free medium. FCS was added after 1 hour. Fluorescence was detected with pinhole settings corresponding to 1 airy unit. The cells were kept at 37° C., 5% CO2 and examined unfixed by LSM510 DUO confocal microscopy (Carl Zeiss).
To examine if the HAMLET-induced change in carcinoma cell morphology was modified by the channel inhibitors, lung carcinoma, kidney carcinoma and lymphoma cells were exposed to HAMLET in the presence or absence of ion channel inhibitors and examined by light microscopy (FIG. 2C).
To determine if p38 signaling was involved in cell death, we inhibited p38α and p38β in lung and kidney carcinoma and Jurkat lymphoma cells with two small-molecule p38 inhibitors: SB202190, a highly specific pyridinyl-imidazole inhibitor; and BIRB796, a diaryl urea compound, which bears little structural similarity to SB202190 (Fabian et al., 2005, Nature Biotechnology 23: 329-336), ([…] and FIG. 12B). […] The effect of p38 inhibition on cell death was also observed by real-time confocal imaging of lung carcinoma cells exposed to fluorescently labeled HAMLET.

tumor cells = test: internalization of Alexa-fluor labeled HAMLET (confocal microscopy); format: cell-based; conditions: HAMLET 35 μM, 1 hour
Procedure: FIG. 2. Ion channel inhibitors rescue carcinoma cells from death and block HAMLET uptake and morphologic change. (A) Viability of lung carcinoma cells after exposure to HAMLET (21 or 35 μM, 3 h), quantified by trypan blue exclusion. […] (B) BaCl2 and amiloride prevented carcinoma cells from changing their morphology in response to HAMLET (Mean of two images in one experiment+SEMs). (C) Internalization of Alexa-fluor labeled HAMLET by tumor cells (35 μM, 1 hour), visualized by confocal microscopy. […] GAPDH was the loading control. (E) The transcriptomic response to HAMLET requires functional ion channels.
as §3

| Molecule | effect of ion channel inhibitor on HAMLET-induced eIF2α phosphorylation (ER stress) [1] | effect of ion channel inhibitor on HAMLET-induced change in cell morphology [3] | effect of inhibitor on internalization of HAMLET (tumor cells) | XBP1 splicing [1] | other results |
| --- | --- | --- | --- | --- | --- |
| [Ba+2].[Cl-].[Cl-] [BaCl2, barium chloride] | reduced eIF2α phosphorylation | maintained their normal morphology | inhibited internalization | – | effect of inhibitor on HAMLET induced TNFα expression [2]: caused a reduction; effect of inhibitor on IL-6 and IL-8 response to HAMLET [2]: did not inhibit |
| NC(N)=NC(=O)c1nc(Cl)c(N)nc1N [amiloride, 3,5-diamino-6-chloro-N-(diaminomethylene)pyrazine-2-carboxamide] | reduced eIF2α phosphorylation | maintained their normal morphology | inhibited internalization | – | effect of inhibitor on HAMLET-induced IL-6 mRNA [2]: abolished |
| CCCCCCCC/C=C\CCCCCCCC(=O)[O-].[Na+] [oleate, sodium oleate] | – | – | – | caused splicing of XBP1 | – |
| B1 | – | – | – | detected | increase of CHOP mRNA ([1]; 3 hours): 30 fold; eIF2α phosphorylation ([1]; A549 tumor cells): time- (30 minutes) and dose-dependent; ATF6 (Western blotting) ([1]; three hours of HAMLET treatment): increase in cleaved as well as full-length ATF6; secreted protein levels of IL-6, IL-8, and TNFα [2]: clear increase in secreted protein levels; increase in IL-6 mRNA ([2]; HAMLET 21 μM, 1 hour, qRT-PCR): 30 fold |
